Source: US4966889A, “Treatment of inflammatory articular diseases” (Industria Farmaceutica Serono SpA, priority 1986, dated 1990)
Entries after “also recorded” stand apart in the source; their conditions may differ.

Columns and labels:
[1] = tested on: patients affected by polyarticular RA; assay: Evaluation of efficacy of therapies in course prior to treatment; assay type: in vivo, human; parameters: key to Efficacy of present therapy: Nil; Scarce; Good; Excellent; settings: single cases
Description: (§1) With reference to each of the clinical cases taken into consideration, supplied below are the particulars relevant to diagnosis, evaluation of efficacy of therapies in course prior to treatment (Nil, Scarce, Good, Excellent), and finally the clinical observations after treatment with Somatostatin (SS) or with Placebo (PL).

[2] = tested on: patients affected by polyarticular RA (knee joint); assay: Double-blind trial versus placebo: clinical observations and side effects; assay type: in vivo, human; settings: at the moment of administration or in the following days; 750 micrograms into knee joint
Experimental: Clinical efficacy of Somatostatin was verified by means of a double-blind trial versus placebo.
17 patients affected by polyarticular RA were selected for the trial. Each patient was informed about the experimental nature of the treatment. The articular site chosen for the study was the knee.
In accordance with the double-blind procedure (Somatostatin versus placebo), 10 patients were treated with Somatostatin ("STILAMIN", 750 micrograms) injected inside the knee joint.
Clinical observations were carried out at time 0, each 10 minutes of the first hour, than at hourly intervals for 3 hours. A further evaluation was made after one week; during the period between the treatment and the evaluation on the seventh day, the patients filled out a table for selfevaluation. Parameters chosen were Ritchie's Index and Huskisson's Scale of Pain, evaluation of pain being made when walking, upon flexion and supine.
as §1

[3] = Piroxicam 20 mg together with 6-alpha-methylprednisolone (8 mg or 4 mg)
[4] = single drug in course prior to treatment

Row | SMILES | Efficacy of present therapy [1, 4] | further results
1 | C[C@H]1C[C@@H]2[C@H]([C@@H](O)C[C@@]3(C)[C@H]2CC[C@]3(O)C(=O)CO)[C@@]2(C)C=CC(=O)C=C12 [6-alpha-methylprednisolone] | Scarce | Efficacy of present therapy [1, 3]: Scarce
2 | O=C(O)Cc1ccccc1Nc1c(Cl)cccc1Cl [Diclofenac] | Scarce | –
3 | CCN(CCO)CCCC(C)Nc1ccnc2cc(Cl)ccc12 (centres unmarked) [Hydroxychloroquine] | – | results of basic therapy (case history) ([1]; before the trial): scarce results; also recorded: Disease still in acute phase
4 | CC(C(=O)O)c1cccc(C(=O)c2ccccc2)c1 (centres unmarked) [Ketoprofene] | Nil | –
5 | COc1ccc2cc([C@H](C)C(=O)O)ccc2c1 [Naproxen] | Good | Efficacy of present therapy ([1]; single drug in course prior to treatment, listed as Naproxene): Good and Scarce
6 | CN1C(C(=O)Nc2ccccn2)=C(O)c2ccccc2S1(=O)=O [Piroxicam] | Scarce | Efficacy of present therapy [1, 3]: Scarce
7 | C[C@H](N)C(=O)NCC(=O)N[C@H]1CSSC[C@@H](C(=O)O)NC(=O)[C@H](CO)NC(=O)[C@H]([C@@H](C)O)NC(=O)[C@H](Cc2ccccc2)NC(=O)[C@H]([C@@H](C)O)NC(=O)[C@H](CCCCN)NC(=O)[C@H](Cc2c[nH]c3ccccc23)NC(=O)[C@H](Cc2ccccc2)NC(=O)[C@H](Cc2ccccc2)NC(=O)[C@H](CC(N)=O)NC(=O)[C@H](CCCCN)NC1=O [Somatostatin] | – | clinical side effects [2]: No verifiable clinical side effects
8 | CC(C(=O)O)c1ccc(C(=O)c2ccccc2)s1 (centres unmarked) [Thiaprophenic Acid] | Nil and Scarce | –
